{
  "source": "patent US7153887B1",
  "about": "“Use of 15-deoxyspergualin for the treatment of ANCA associated vasculitis” (Euro Nippon Kayaku GmbH, priority 1999, dated 2006)",
  "key": {"[1]": {"tested_on": "ANCA-associated systemic vasculitis", "assay": "Example II: multi-cycle subcutaneous DSG treatment of a patient with M. Wegener", "assay_type": "in vivo, human", "description": "They had also been given various treatments including CYC+OCS, AZA and MMF with frequent relapses.\nTherefore, DSG was administered subcutaneously as described in Example I (0,5 mg/kg/d)."}, "[2]": {"tested_on": "MRL/MpJ-lpr/lpr (MRL/lpr) mice", "assay": "Example III: MRL/lpr mouse model of SLE-like autoimmune disease, continuous versus cycle treatment", "assay_type": "in vivo", "details": "for levels of white blood cells in peripheral blood: control about 18,000/μl", "excerpt": "MRL/lpr mice develop systemic lupus erythematosus (SLE)-like lesions. The disease is characterized by massive lymphadenopathy, development of antibodies to self antigens, and glomerulonephritis. Therefore, these mice offer a good model for autoimmune disease.\nMale MRL/MpJ-lpr/lpr (MRL/lpr) mice were obtained from Charles River Japan (Atsugi, Kanagawa, Japan). The mice were maintained in specific pathogen-free conditions.\nDSG was obtained and prepared as described in Example I.\nDSG was administered from week 13 through week 20 (58 days):\n(A) i.v. at daily doses of 1.5 mg/kg or\n(B) in three treatment cycles of 10 days with 1.5 mg/kg DSG i.v. daily with an interphase (no DSG) of 14 days after the first and second cycle.\nEach treatment group (A and B) consisted of 10 mice. A set of control MRL/lpr-mice (10) receiving saline were included.\nAt the end of the experiment (day 59), the weight of the lymph nodes, serum anti-DNA titer and BUN (blood urea nitrogen) were measured as described by Nemoto, K. et al., J. Antibiotics, (1990), 1590–1591. The levels of white blood cells in peripheral blood were decreased both in groups A and B to about 6,000/μl compared to about 18,000/μl in the control group."}, "[3]": {"tested_on": "ANCA-associated vasculitis", "assay": "General clinical findings on DSG administration and cycle treatment of vasculitis"}, "[4]": {"tested_on": "ANCA-associated systemic vasculitis", "assay": "Example I: multi-cycle subcutaneous DSG treatment of a patient with Morbus Wegener", "method": "The DSG used was a Gusperimus hydrochloride preparation (100 mg/vial) (Spanidin inj.) of Nippon Kayaku Co. Ltd., Tokyo, Japan. […] The lyophilized DSG (100 mg) was reconstituted with physiological saline and admininstered at 0,5 mg/kg/d subcutaneously over 19 days. […] The levels of white blood cells and neutrophils were regularity monitored."}, "[5]": {"tested_on": "ANCA-associated systemic vasculitis", "details": "cyclophosphamide (CYC) and OCS, after 4 weeks"}, "[6]": {"details": "group B (cycle treatment) compared to group A (continuous), day 59"}},
  "data": [
    {"smiles": "N=C(N)NCCCCCCC(=O)NC(O)C(=O)NCCCCNCCCN", "note": "(stereo not shown) [DSG, 15-deoxyspergualin]", "values": [
      {"measurement": "remission", "setting": "[1]; after two treatment cycles", "value": "complete remission"},
      {"measurement": "BVAS", "setting": "[1]; after two treatment cycles, initial BVAS of 19", "value": 0},
      {"measurement": "neutrophil counts", "setting": "[1]; at start of treatment cycles", "value": "above 3,500 /μl"},
      {"measurement": "white blood cell counts", "setting": "[1]; at start of treatment cycles", "value": "above 4,000 /μl"},
      {"measurement": "neutrophil counts", "setting": "[1]; at termination of the two cycles", "value": "2,000–3,000 /μl"},
      {"measurement": "white blood cell counts", "setting": "[1]; at termination of the two cycles (14 and 21 days), 0,5 mg/kg/d s.c.", "value": "3,000–4,000 /μl"},
      {"measurement": "suppression of the development of SLE-like lesions", "setting": "[2]; cycle treatment versus continuous daily administration of an equal dosage", "value": "more efficient"},
      {"measurement": "levels of white blood cells in peripheral blood", "setting": "[2]; group A: 1.5 mg/kg i.v. daily for 58 days, day 59", "value": "about 6,000 /μl"},
      {"measurement": "BUN (blood urea nitrogen)", "setting": "[2]; [6]", "value": "significantly lower level"},
      {"measurement": "serum anti-DNA titer", "setting": "[2]; [6]", "value": "significantly lower level"},
      {"measurement": "weight of the mesenteric, axillary, elbow, inguinal, submaxillary and iliac lymph nodes", "setting": "[2]; [6]", "value": "more pronounced reduction"},
      {"measurement": "levels of white blood cells in peripheral blood", "setting": "[2]; group B: three 10-day cycles of 1.5 mg/kg i.v. daily, 14-day interphases, day 59", "value": "about 6,000 /μl"},
      {"measurement": "local tolerability of subcutaneous injection", "setting": "[3]", "value": "without local complications"},
      {"measurement": "clinical condition", "setting": "[4]; after the first two treatment cycles", "value": "significant improvement"},
      {"measurement": "remission by clinical judgement and BVAS", "setting": "[4]; after the third cycle", "value": "complete remission"},
      {"measurement": "BVAS (Birmingham vasculitis activity score)", "setting": "[4]; after the third cycle, BVAS before DSG-treatment 12", "value": 0},
      {"measurement": "white blood cell count in peripheral blood", "setting": "[4]; day 19, end of first cycle, 0,5 mg/kg/d s.c. over 19 days, 12,300 WBC/μl on day 1", "value": "3,460 WBC/μl"},
      {"measurement": "white blood cell count", "setting": "[4]; day 33, recovery after DSG discontinued on day 19", "value": "9,600 /μl"},
      {"measurement": "WBC count", "setting": "[4]; day 52, end of second treatment cycle", "value": "3,500 /μl"},
      {"measurement": "WBC count", "setting": "[4]; day 65, after treatment rest from day 52", "value": "11,500 /μl"},
      {"measurement": "WBC count", "setting": "[4]; day 66, start of third treatment cycle", "value": "12,000 /μl"},
      {"measurement": "WBC count", "setting": "[4]; day 85, end of third treatment cycle", "value": "3,800 /μl"},
      {"measurement": "adverse side effects of DSG", "setting": "[4]; during all treatment cycles", "value": "no adverse side effects"},
      {"measurement": "tolerability", "setting": "[4]; during all treatment cycles", "value": "well tolerated"},
      {"measurement": "side effects", "setting": "[4]; first treatment cycle and recovery to day 33", "value": "No side effects were observed"},
      {"measurement": "methylprednisolone dose after steroid taper", "setting": "[4]; tapered from initially 16 mg under DSG cycle treatment", "value": 6, "unit": "mg"},
      {"measurement": "neutrophil counts", "setting": "[4]; when the subsequent cycle was started", "value": "above 4,000 /μl"}
    ]},
    {"smiles": "O=P1(N(CCCl)CCCl)NCCCO1", "note": "(stereo not shown) [cyclophosphamide]", "values": [
      {"measurement": "adverse effect of prior treatment", "setting": "[5]", "value": "toxic hepatitis"}
    ]}
  ]
}
